Measurements reported in patent USRE42890E1, “Furazanobenzimidazoles” (Basilea Pharmaceutica AG, priority 2003, dated 2011).
pIC50: −log10 of the molar value.

system: Jurkat; assay: MTS proliferation assay, Jurkat; format: cell-based, human; settings: 72 h incubation, read-out: MTS proliferation assay IC 50 Jurkat
How it was run: (§1)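 Absorbance at 492 nm after 3 h with MTS reagent gave proliferation. This followed 72 h compound exposure (final 0.3, 1, 3, 10 μM) at 37 °C and 7.5% CO2. Cells had been plated 24 h earlier in complete RPMI-1640 with 5% or 10% FCS.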

Structure (SMILES) | pIC50
COc1cc(C(=O)Cn2c(-c3nonc3N)nc3ccccc32)ccc1OCc1ccccc1 [Example 73] | 6.00 to 7.00
CC(=O)Nc1ccc(C(=O)Cn2c(-c3nonc3N)nc3ccccc32)cc1[N+](=O)[O-] [Example 64] | 7.00 to 8.00
Cc1ccc(/C=C/C(=O)Cn2c(-c3nonc3N)nc3ccccc32)cc1 [Example 119] | < 6.00

system: Jily; assay: MTS proliferation assay, Jily; format: cell-based; settings: 72 h incubation, read-out: MTS proliferation assay IC 50 Jily
How it was run: (§2)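 Antiproliferative read-out by MTS (3 h, A492) after 72 h compound exposure at final 0.3–10 μM (four concentrations). Cells were plated 24 h earlier in RPMI-1640 containing 5% or 10% FCS, cultured at 37 °C with 7.5% CO2.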

Structure (SMILES) | pIC50
COc1cc(C(=O)Cn2c(-c3nonc3N)nc3ccccc32)ccc1OCc1ccccc1 [Example 73] | 6.00 to 7.00
CC(=O)Nc1ccc(C(=O)Cn2c(-c3nonc3N)nc3ccccc32)cc1[N+](=O)[O-] [Example 64] | 7.00 to 8.00
Cc1ccc(/C=C/C(=O)Cn2c(-c3nonc3N)nc3ccccc32)cc1 [Example 119] | < 6.00

system: HT1080; assay: MTS proliferation assay, HT1080; format: cell-based, human; settings: HT1080, 72 h incubation; read-out: MTS proliferation assay IC 50 HT1080
How it was run: as §1

Structure (SMILES) | pIC50
COc1cc(C(=O)Cn2c(-c3nonc3N)nc3ccccc32)ccc1OCc1ccccc1 [Example 73] | 6.00 to 7.00
CC(=O)Nc1ccc(C(=O)Cn2c(-c3nonc3N)nc3ccccc32)cc1[N+](=O)[O-] [Example 64] | 7.00 to 8.00
Cc1ccc(/C=C/C(=O)Cn2c(-c3nonc3N)nc3ccccc32)cc1 [Example 119] | < 6.00

system: HeLa; assay: MTS proliferation assay, HeLa; format: cell-based, human; settings: 72 h incubation, read-out: MTS proliferation assay IC 50 HeLa
How it was run: as §1

Structure (SMILES) | pIC50
COc1cc(C(=O)Cn2c(-c3nonc3N)nc3ccccc32)ccc1OCc1ccccc1 [Example 73] | 6.00 to 7.00
CC(=O)Nc1ccc(C(=O)Cn2c(-c3nonc3N)nc3ccccc32)cc1[N+](=O)[O-] [Example 64] | 7.00 to 8.00
Cc1ccc(/C=C/C(=O)Cn2c(-c3nonc3N)nc3ccccc32)cc1 [Example 119] | < 6.00

system: MRC5; assay: MTS proliferation assay, MRC5; format: cell-based; settings: MRC5, 72 h incubation; read-out: MTS proliferation assay IC 50 MRC5
How it was run: as §2

Structure (SMILES) | pIC50
COc1cc(C(=O)Cn2c(-c3nonc3N)nc3ccccc32)ccc1OCc1ccccc1 [Example 73] | 6.00 to 7.00
CC(=O)Nc1ccc(C(=O)Cn2c(-c3nonc3N)nc3ccccc32)cc1[N+](=O)[O-] [Example 64] | 7.00 to 8.00
Cc1ccc(/C=C/C(=O)Cn2c(-c3nonc3N)nc3ccccc32)cc1 [Example 119] | < 6.00

system: adherent cells or suspension cells; assay: Hoechst 33342 nuclear staining (fraction of apoptotic nuclei); format: cell-based; design: key: 0 relating to no activity; 1 relating to weak activity comprising less than 70% of the cells; score 2 relating to strong activity comprising more than 70% of the cells; settings: H460, conc 0.01 μm

Structure (SMILES) | Hoechst 33342 nuclear staining score
COc1cc(C(=O)Cn2c(-c3nonc3N)nc3ccccc32)ccc1OCc1ccccc1 [Example 73] | 0
CC(=O)Nc1ccc(C(=O)Cn2c(-c3nonc3N)nc3ccccc32)cc1[N+](=O)[O-] [Example 64] | 0
Cc1ccc(/C=C/C(=O)Cn2c(-c3nonc3N)nc3ccccc32)cc1 [Example 119] | 0

same assay, conditions: H460, conc 0.1 μm

Structure (SMILES) | Hoechst 33342 nuclear staining score
COc1cc(C(=O)Cn2c(-c3nonc3N)nc3ccccc32)ccc1OCc1ccccc1 [Example 73] | 0
CC(=O)Nc1ccc(C(=O)Cn2c(-c3nonc3N)nc3ccccc32)cc1[N+](=O)[O-] [Example 64] | 2 (score 2 relating to strong activity comprising more than 70% of the cells)
Cc1ccc(/C=C/C(=O)Cn2c(-c3nonc3N)nc3ccccc32)cc1 [Example 119] | 0

same assay, conditions: H460, conc 1 μm

Structure (SMILES) | Hoechst 33342 nuclear staining score
COc1cc(C(=O)Cn2c(-c3nonc3N)nc3ccccc32)ccc1OCc1ccccc1 [Example 73] | 2 (score 2 relating to strong activity comprising more than 70% of the cells)
CC(=O)Nc1ccc(C(=O)Cn2c(-c3nonc3N)nc3ccccc32)cc1[N+](=O)[O-] [Example 64] | 2 (score 2 relating to strong activity comprising more than 70% of the cells)
Cc1ccc(/C=C/C(=O)Cn2c(-c3nonc3N)nc3ccccc32)cc1 [Example 119] | 0

same assay, conditions: HeLa, conc 0.01 μm

Structure (SMILES) | Hoechst 33342 nuclear staining score
COc1cc(C(=O)Cn2c(-c3nonc3N)nc3ccccc32)ccc1OCc1ccccc1 [Example 73] | 0
CC(=O)Nc1ccc(C(=O)Cn2c(-c3nonc3N)nc3ccccc32)cc1[N+](=O)[O-] [Example 64] | 0
Cc1ccc(/C=C/C(=O)Cn2c(-c3nonc3N)nc3ccccc32)cc1 [Example 119] | 0

same assay, conditions: HeLa, conc 0.1 μm

Structure (SMILES) | Hoechst 33342 nuclear staining score
COc1cc(C(=O)Cn2c(-c3nonc3N)nc3ccccc32)ccc1OCc1ccccc1 [Example 73] | 0
CC(=O)Nc1ccc(C(=O)Cn2c(-c3nonc3N)nc3ccccc32)cc1[N+](=O)[O-] [Example 64] | 2 (score 2 relating to strong activity comprising more than 70% of the cells)
Cc1ccc(/C=C/C(=O)Cn2c(-c3nonc3N)nc3ccccc32)cc1 [Example 119] | 0

same assay, conditions: HeLa, conc 1 μm

Structure (SMILES) | Hoechst 33342 nuclear staining score
COc1cc(C(=O)Cn2c(-c3nonc3N)nc3ccccc32)ccc1OCc1ccccc1 [Example 73] | 1 (1 relating to weak activity comprising less than 70% of the cells)
CC(=O)Nc1ccc(C(=O)Cn2c(-c3nonc3N)nc3ccccc32)cc1[N+](=O)[O-] [Example 64] | 2 (score 2 relating to strong activity comprising more than 70% of the cells)
Cc1ccc(/C=C/C(=O)Cn2c(-c3nonc3N)nc3ccccc32)cc1 [Example 119] | 0

same assay, conditions: Jily, conc 0.01 μm

Structure (SMILES) | Hoechst 33342 nuclear staining score
COc1cc(C(=O)Cn2c(-c3nonc3N)nc3ccccc32)ccc1OCc1ccccc1 [Example 73] | 0
CC(=O)Nc1ccc(C(=O)Cn2c(-c3nonc3N)nc3ccccc32)cc1[N+](=O)[O-] [Example 64] | 2 (score 2 relating to strong activity comprising more than 70% of the cells)
Cc1ccc(/C=C/C(=O)Cn2c(-c3nonc3N)nc3ccccc32)cc1 [Example 119] | 0

same assay, conditions: Jily, conc 0.1 μm

Structure (SMILES) | Hoechst 33342 nuclear staining score
COc1cc(C(=O)Cn2c(-c3nonc3N)nc3ccccc32)ccc1OCc1ccccc1 [Example 73] | 0
CC(=O)Nc1ccc(C(=O)Cn2c(-c3nonc3N)nc3ccccc32)cc1[N+](=O)[O-] [Example 64] | 2 (score 2 relating to strong activity comprising more than 70% of the cells)
Cc1ccc(/C=C/C(=O)Cn2c(-c3nonc3N)nc3ccccc32)cc1 [Example 119] | 0

same assay, conditions: Jily, conc 1 μm

Structure (SMILES) | Hoechst 33342 nuclear staining score
COc1cc(C(=O)Cn2c(-c3nonc3N)nc3ccccc32)ccc1OCc1ccccc1 [Example 73] | 1 (1 relating to weak activity comprising less than 70% of the cells)
CC(=O)Nc1ccc(C(=O)Cn2c(-c3nonc3N)nc3ccccc32)cc1[N+](=O)[O-] [Example 64] | 2 (score 2 relating to strong activity comprising more than 70% of the cells)
Cc1ccc(/C=C/C(=O)Cn2c(-c3nonc3N)nc3ccccc32)cc1 [Example 119] | 0

same assay, conditions: Jurkat, conc 0.01 μm

Structure (SMILES) | Hoechst 33342 nuclear staining score
COc1cc(C(=O)Cn2c(-c3nonc3N)nc3ccccc32)ccc1OCc1ccccc1 [Example 73] | 0
CC(=O)Nc1ccc(C(=O)Cn2c(-c3nonc3N)nc3ccccc32)cc1[N+](=O)[O-] [Example 64] | 2 (score 2 relating to strong activity comprising more than 70% of the cells)
Cc1ccc(/C=C/C(=O)Cn2c(-c3nonc3N)nc3ccccc32)cc1 [Example 119] | 0

same assay, conditions: Jurkat, conc 0.1 μm

Structure (SMILES) | Hoechst 33342 nuclear staining score
COc1cc(C(=O)Cn2c(-c3nonc3N)nc3ccccc32)ccc1OCc1ccccc1 [Example 73] | 0
CC(=O)Nc1ccc(C(=O)Cn2c(-c3nonc3N)nc3ccccc32)cc1[N+](=O)[O-] [Example 64] | 2 (score 2 relating to strong activity comprising more than 70% of the cells)
Cc1ccc(/C=C/C(=O)Cn2c(-c3nonc3N)nc3ccccc32)cc1 [Example 119] | 0

same assay, conditions: Jurkat, conc 1 μm

Structure (SMILES) | Hoechst 33342 nuclear staining score
COc1cc(C(=O)Cn2c(-c3nonc3N)nc3ccccc32)ccc1OCc1ccccc1 [Example 73] | 2 (score 2 relating to strong activity comprising more than 70% of the cells)
CC(=O)Nc1ccc(C(=O)Cn2c(-c3nonc3N)nc3ccccc32)cc1[N+](=O)[O-] [Example 64] | 2 (score 2 relating to strong activity comprising more than 70% of the cells)
Cc1ccc(/C=C/C(=O)Cn2c(-c3nonc3N)nc3ccccc32)cc1 [Example 119] | 0

same assay, conditions: MRC5, conc 0.01 μm

Structure (SMILES) | Hoechst 33342 nuclear staining score
COc1cc(C(=O)Cn2c(-c3nonc3N)nc3ccccc32)ccc1OCc1ccccc1 [Example 73] | 0
CC(=O)Nc1ccc(C(=O)Cn2c(-c3nonc3N)nc3ccccc32)cc1[N+](=O)[O-] [Example 64] | 0
Cc1ccc(/C=C/C(=O)Cn2c(-c3nonc3N)nc3ccccc32)cc1 [Example 119] | 0

same assay, conditions: MRC5, conc 0.1 μm

Structure (SMILES) | Hoechst 33342 nuclear staining score
COc1cc(C(=O)Cn2c(-c3nonc3N)nc3ccccc32)ccc1OCc1ccccc1 [Example 73] | 0
CC(=O)Nc1ccc(C(=O)Cn2c(-c3nonc3N)nc3ccccc32)cc1[N+](=O)[O-] [Example 64] | 1 (1 relating to weak activity comprising less than 70% of the cells)
Cc1ccc(/C=C/C(=O)Cn2c(-c3nonc3N)nc3ccccc32)cc1 [Example 119] | 0

same assay, conditions: MRC5, conc 1 μm

Structure (SMILES) | Hoechst 33342 nuclear staining score
COc1cc(C(=O)Cn2c(-c3nonc3N)nc3ccccc32)ccc1OCc1ccccc1 [Example 73] | 1 (1 relating to weak activity comprising less than 70% of the cells)
CC(=O)Nc1ccc(C(=O)Cn2c(-c3nonc3N)nc3ccccc32)cc1[N+](=O)[O-] [Example 64] | 1 (1 relating to weak activity comprising less than 70% of the cells)
Cc1ccc(/C=C/C(=O)Cn2c(-c3nonc3N)nc3ccccc32)cc1 [Example 119] | 0

same assay, conditions: PBLs, conc 0.01 μm

Structure (SMILES) | Hoechst 33342 nuclear staining score
COc1cc(C(=O)Cn2c(-c3nonc3N)nc3ccccc32)ccc1OCc1ccccc1 [Example 73] | 0
CC(=O)Nc1ccc(C(=O)Cn2c(-c3nonc3N)nc3ccccc32)cc1[N+](=O)[O-] [Example 64] | 0
Cc1ccc(/C=C/C(=O)Cn2c(-c3nonc3N)nc3ccccc32)cc1 [Example 119] | 0

same assay, conditions: PBLs, conc 0.1 μm

Structure (SMILES) | Hoechst 33342 nuclear staining score
COc1cc(C(=O)Cn2c(-c3nonc3N)nc3ccccc32)ccc1OCc1ccccc1 [Example 73] | 0
CC(=O)Nc1ccc(C(=O)Cn2c(-c3nonc3N)nc3ccccc32)cc1[N+](=O)[O-] [Example 64] | 0
Cc1ccc(/C=C/C(=O)Cn2c(-c3nonc3N)nc3ccccc32)cc1 [Example 119] | 0

same assay, conditions: PBLs, conc 1 μm

Structure (SMILES) | Hoechst 33342 nuclear staining score
COc1cc(C(=O)Cn2c(-c3nonc3N)nc3ccccc32)ccc1OCc1ccccc1 [Example 73] | 0
CC(=O)Nc1ccc(C(=O)Cn2c(-c3nonc3N)nc3ccccc32)cc1[N+](=O)[O-] [Example 64] | 0
Cc1ccc(/C=C/C(=O)Cn2c(-c3nonc3N)nc3ccccc32)cc1 [Example 119] | 0
